Measured values from patent US11066412B2, “Substituted pyrrolo[2,1-a]phthalazines and benzo[g]pyrrolo[2,1-a]phthalazines for the treatment of cancer” (Academia Sinica, priority 2017, dated 2021).

How the values were obtained:
H460 cell lines = test: Annexin V staining assay; format: cell-based, human; conditions: 0.5, 1 and 2 μM, 48 hr; FIG. 7
Procedure: In this example, Annexin V staining assay was used to assess BO-2590 induced apoptotic cell death in H460 cell lines. Briefly, H460 cells were treated with BO-2590 at the concentrations of 0.5, 1 and 2 μM for 48 hr and then stained with Annexin V-FITC and propidium iodide. The stained cells were analyzed by flow cytometry.

endothelial cells = test: transwell migration assay; format: cell-based; conditions: 8 hours; FIG. 4, panel A
Procedure: In the present example, we explored whether compound BO-2590 was able to suppress the cell migration using transwell migration assay.
Briefly, the endothelial cells were placed on the upper layer of a cell permeable membrane and a solution containing BO-2590 was placed below the cell permeable membrane. Following an incubation period (8 hours), the cells that had migrated through the membrane were stained and counted under a fluorescence microscopy.

H460 lung cancer cells = test: cell cycle distribution by flow cytometry; format: cell-based, human
Procedure: We further investigated the effects of BO-2590 on cell cycle progression in H460 lung cancer cells at the concentrations of 0, 0.125, 0.25, 0.5, 1 and 2 μM for 24, 48 and 72 hr. The cell cycle distribution was analyzed by flow cytometry. […] By increasing the concentration of BO-2590, significant arrest at the G2 phase was first observed, which was followed by the arrest of the S phase progression, and finally the G1 arrest appeared at 24 hr. However, following the incubation for 48 or 72 hr, while the cell cycle slowly processed, a significant amount of the sub-G1 cells started to appear (FIG. 6). The sub-G1 cells also represented apoptotic cells.

[1] = solubility / hydrophobicity (statement); format: physicochemical
VEGFR-2 = molecular target: T1, VEGFR-2 (Homo sapiens, UniProt P35968); test: VEGFR-2 activation, western blotting in EA.hy926 cells; format: cell-based
T1 construct: endogenous in cells; host or cells: EA.hy926 endothelial cells
T1 sequence (P35968 20-1356): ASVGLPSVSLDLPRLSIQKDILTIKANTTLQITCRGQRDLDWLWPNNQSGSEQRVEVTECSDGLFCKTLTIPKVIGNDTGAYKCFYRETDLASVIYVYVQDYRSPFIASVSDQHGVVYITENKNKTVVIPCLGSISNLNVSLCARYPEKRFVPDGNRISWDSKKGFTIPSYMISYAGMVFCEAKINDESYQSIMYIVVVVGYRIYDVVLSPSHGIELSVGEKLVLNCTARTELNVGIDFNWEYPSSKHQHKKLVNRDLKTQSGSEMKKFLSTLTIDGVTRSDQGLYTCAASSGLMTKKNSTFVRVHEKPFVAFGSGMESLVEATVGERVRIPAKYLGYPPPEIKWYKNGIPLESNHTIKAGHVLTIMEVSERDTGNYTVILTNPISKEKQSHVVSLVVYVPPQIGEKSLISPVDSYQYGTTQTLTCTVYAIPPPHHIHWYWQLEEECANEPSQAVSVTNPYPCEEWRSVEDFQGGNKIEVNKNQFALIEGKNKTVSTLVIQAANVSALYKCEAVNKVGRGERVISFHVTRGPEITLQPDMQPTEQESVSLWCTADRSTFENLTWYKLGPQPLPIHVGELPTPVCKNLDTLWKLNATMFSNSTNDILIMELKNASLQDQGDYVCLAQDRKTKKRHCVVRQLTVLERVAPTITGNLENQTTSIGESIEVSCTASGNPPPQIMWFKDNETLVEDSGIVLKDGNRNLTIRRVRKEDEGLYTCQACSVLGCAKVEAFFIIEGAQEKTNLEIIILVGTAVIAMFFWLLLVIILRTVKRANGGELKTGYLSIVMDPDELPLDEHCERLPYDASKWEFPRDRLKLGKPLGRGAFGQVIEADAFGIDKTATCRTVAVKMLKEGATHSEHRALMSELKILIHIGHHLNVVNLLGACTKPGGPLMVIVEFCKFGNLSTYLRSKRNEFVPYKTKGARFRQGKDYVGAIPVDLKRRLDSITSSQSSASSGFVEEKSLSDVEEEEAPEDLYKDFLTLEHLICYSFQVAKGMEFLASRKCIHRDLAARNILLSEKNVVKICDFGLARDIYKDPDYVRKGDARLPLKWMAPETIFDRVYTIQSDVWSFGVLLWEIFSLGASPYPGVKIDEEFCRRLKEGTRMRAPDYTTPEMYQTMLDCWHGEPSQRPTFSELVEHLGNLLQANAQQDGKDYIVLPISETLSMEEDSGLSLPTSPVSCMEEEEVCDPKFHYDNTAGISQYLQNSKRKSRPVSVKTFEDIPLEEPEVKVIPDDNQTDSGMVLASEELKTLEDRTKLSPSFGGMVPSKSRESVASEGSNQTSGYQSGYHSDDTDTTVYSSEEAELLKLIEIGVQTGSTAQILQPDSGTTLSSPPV
Procedure: In the present example, BO-2590 and BO-2577 were subject to the test of their activity in suppressing VEGFR-2 by western blotting analysis. Briefly, the endothelial EA.hy926 cells were incubated with BO-2590 or BO-2577 at various concentrations for 12 hr. The primary antibodies, anti-VEGFR-2 and anti-p-VEGFR-2, were used to blot the proteins of total VEGFR-2 and p-VEGFR-2, respectively. Results are illustrated in FIG. 3.

H146 = test: in vitro cytotoxicity to SCLC cells; format: cell-based, human; conditions: Table 3
Outline: (§1)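 SCLC lines exposed to compounds for 72 h, then viability measured by PrestoBlue (1–2 h at 37° C, absorbance 570/600 nm).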

H1417 = test: in vitro cytotoxicity to SCLC cells; format: cell-based, human; conditions: Table 3
Outline: as §1

H82 = test: in vitro cytotoxicity to SCLC cells; format: cell-based, human; conditions: Table 3
Outline: as §1

H526 cells = test: single cell electrophoresis (comet) assay; format: cell-based; conditions: FIG. 2
Excerpt: The data is the average of 3 independent experiments.
To this purpose, cells were encapsulating in a low-melting-point agarose suspension on a microscope slide, then were lysed in neutral or alkaline (pH>13) condition, and electrophoresis of the suspended lysed cells. The term “comet” refers to the pattern of DNA migration through the electrophoresis gel, which often resembles a comet, and the intensity of the comet tail relative to the head reflects the number of DNA breaks.

SCLC H211 xenografts = test: tumor growth in xenograft-bearing nude mice, combination with cisplatin; format: in vivo; conditions: co-administration of BO-2768 (20 mg/kg, 5 days + 1 day rest, two cycles) and cisplatin (2 or 4 mg/kg every 4 days ×3); FIG. 14, panel A
Procedure: Athymic nude mice bearing the nu/nu gene were obtained from the National Laboratory Animal Center (Taipei, Taiwan). Male nude mice (6 weeks or older weighing 20-24 g or more) were used for all human tumor xenografts. The tested compounds were intravenously administered through tail vein. Tumor volume was determined by measuring the length x width x height (or width) with calipers. The vehicle used for the tested compounds was normal saline (0.9% NaCl isotonic solution). For tumor-bearing nude mice during the course of the experiment, the % body weight changes refer to: (the total weight on reading day/the total weight on day treatment started)×100.
In this example, the synergistic effect of BO-2768 and cisplatin on the suppression of tumor size and the body weight changes of the test subjects were investigated. To this purpose, an aliquot of H211 cells (5×10^6, 50 μl ) were implanted into nude mice subcutaneously. Then, the test animals were treated with BO-2768 or cisplatin, alone or in combination. BI-2768 (dissolved in 20% Kolliphor® HS 15, 10% Tween 80, 10% PEG400, […], and 40% distilled water) was administered at the dose of 20 mg/kg in […] for 5 consecutive days, then rest for one day; and the cycle was repeated once (i.e., a total of two cycles). Cisplatin was given at the dose of 2 or 4 mg/kg once every 4 days, for 3 times. Results are depicted in FIG. 14.

H526 cell lines = test: Annexin V staining assay; format: cell-based; conditions: 0.01-0.08 μM, 72-h treatment; FIG. 8
Procedure: In this example, the effect of BO-2768 was assessed in accordance with procedures of Example 4.7 except apoptotic cell death was determined in H526 cell lines. Briefly, H526 cells were treated with BO-2768 at the concentrations of 0.01, 0.02, 0.04 and 0.08 μM or with cisplatin at the concentrations of 2, 4, 8 and 16 μM for 24, 48 or 72 hrs and then stained with Annexin V-FITC and propidium iodide. The stained cells were analyzed by flow cytometry.

For Cc1c(CO)c(CO)c2c3ccccc3c(N3CCC(N4CCCCC4)CC3)nn12 [BO-2590, (6-([1,4′-Bipiperidin]-1′-yl)-3-methylpyrrolo[2,1-α]phthalazine-1,2-diyl)dimethanol], the “proportion of Annexin V+ cells” value (H460 cell lines) was “significantly increased the proportion of Annexin V^+ cells in a dose-dependent manner”, the cell migration (endothelial cells) was “impairment in cell migration” and the cell cycle progression (H460 lung cancer cells; 0.125-2 μM, 24, 48 and 72 hr, FIG. 5) was “dose-dependently interfered with cell cycle progression”. For the same compound, the “sub-G1 (apoptotic) cells” value (H460 lung cancer cells; 48 or 72 hr, FIG. 6) was “dose-dependently induced the sub-G1 cells”, the solubility [1] was “poor” and the p-VEGFR-2 protein levels (VEGFR-2; EA.hy926 cells, 12 hr, FIG. 3) was “marked suppression in p-VEGFR-2 protein levels”. The “total protein levels of VEGFR-2” value (VEGFR-2; EA.hy926 cells, 12 hr, FIG. 3) was “did not significantly change the total protein levels of VEGFR-2” and the “dose effective on suppression of p-VEGFR-2, lower than that of Valatanib” value (VEGFR-2; relative to Valatanib) was about 10 folds.

Compound Cc1c(CO)c(CO)c2c3cc4ccccc4cc3c(N(C)C)nn12 [BO-2768, (6-(Dimethylamino)-3-methylbenzo[g]pyrrolo[2,1-α]phthalazine-1,2-diyl)dimethanol] has an IC50 (H146) of 1170 ± 290 nM, an IC50 (H1417) of 420 ± 190 nM and an IC50 (H82) of 310 ± 140 nM. For the same compound, the “DNA damage (comet tail)” value (H526 cells) was “capable of inducing DNA breaks in a dose dependent manner”, the “tumor size, combination effect” value (SCLC H211 xenografts) was “synergistic reduction in the tumor size” and the “proportion of Annexin V+ cells” value (H526 cell lines) was “significantly increased the proportion of Annexin V^+ cells in a dose-dependent manner”.
